Data taken from US11279681B2, “3-alkyl bicyclic [4,5,0] hydroxamic acids as HDAC inhibitors” (Valo Health, Inc., priority 2015, dated 2022).

molecular target: T1, HDAC6 (Homo sapiens, UniProt Q9UBN7); experiment: In vitro histone deacetylase assay: enzymatic HDAC6 electrophoretic mobility shift assay; assay type: biochemical; conditions: full length human recombinant HDAC6, 1 nM enzyme, 2 μM peptide substrate RHKK(Ac)-NH2, 25° C.; read-out: Inhibitory Concentration (IC50) Values for Representative Compounds against HDAC6, Activity Range
T1 sequence (Q9UBN7 1-1215): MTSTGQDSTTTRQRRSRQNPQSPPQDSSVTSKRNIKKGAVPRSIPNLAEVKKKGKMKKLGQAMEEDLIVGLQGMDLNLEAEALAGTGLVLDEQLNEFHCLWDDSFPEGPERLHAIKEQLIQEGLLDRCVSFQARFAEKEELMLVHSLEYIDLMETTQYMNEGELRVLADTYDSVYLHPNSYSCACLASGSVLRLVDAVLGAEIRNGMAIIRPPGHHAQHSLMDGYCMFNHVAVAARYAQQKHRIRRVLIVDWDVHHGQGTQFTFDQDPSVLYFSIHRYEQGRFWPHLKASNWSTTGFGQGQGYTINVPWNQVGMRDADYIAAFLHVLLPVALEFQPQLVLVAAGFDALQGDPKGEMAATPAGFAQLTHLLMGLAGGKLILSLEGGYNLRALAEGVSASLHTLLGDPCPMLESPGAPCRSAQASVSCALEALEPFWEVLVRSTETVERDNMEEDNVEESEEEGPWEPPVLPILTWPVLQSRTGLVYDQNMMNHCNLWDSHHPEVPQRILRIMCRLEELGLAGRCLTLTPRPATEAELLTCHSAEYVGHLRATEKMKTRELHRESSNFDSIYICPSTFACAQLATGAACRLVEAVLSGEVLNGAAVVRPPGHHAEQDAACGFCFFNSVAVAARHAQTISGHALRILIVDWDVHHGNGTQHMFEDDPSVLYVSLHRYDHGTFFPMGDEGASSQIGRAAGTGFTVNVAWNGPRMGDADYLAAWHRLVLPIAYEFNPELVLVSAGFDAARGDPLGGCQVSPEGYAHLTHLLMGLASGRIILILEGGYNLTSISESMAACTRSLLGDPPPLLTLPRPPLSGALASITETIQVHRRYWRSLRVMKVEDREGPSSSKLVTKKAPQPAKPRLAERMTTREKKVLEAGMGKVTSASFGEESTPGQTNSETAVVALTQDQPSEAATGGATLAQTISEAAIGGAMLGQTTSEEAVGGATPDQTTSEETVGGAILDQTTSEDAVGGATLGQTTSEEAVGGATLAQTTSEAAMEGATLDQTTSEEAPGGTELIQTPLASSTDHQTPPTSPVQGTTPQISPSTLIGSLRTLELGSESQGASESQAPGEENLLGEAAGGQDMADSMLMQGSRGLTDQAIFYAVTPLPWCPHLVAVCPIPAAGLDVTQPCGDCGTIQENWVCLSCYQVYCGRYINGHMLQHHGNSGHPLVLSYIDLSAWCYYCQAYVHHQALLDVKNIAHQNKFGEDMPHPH
Procedure: The enzymatic HDAC6 assay was performed using electrophoretic mobility shift assay. […] The enzymatic reactions were assembled in 384 well plates in a total volume of 25 μL in a reaction buffer composing: 100 mM HEPES, pH7.5, 25 mM KCl, 0.1% bovine serum albumin, 0.01% Triton X-100, 1% DMSO (from compounds) 2 μM of the fluorescently labeled peptide substrate and enzyme. The enzyme was added at a final concentration of 1 nM. The peptide substrate RHKK(Ac)-NH2 was used. The compounds were tested at 12 concentrations spaced by 3× dilution intervals. Negative control samples (0%-inhibition in the absence of inhibitor) and positive control samples (100%-inhibition) were assembled in replicates of four in each assay plate. The reactions were incubated at 25° C. and quenched by the addition of 45 μL of termination buffer (100 mM HEPES, pH 7.5, 0.01% Triton X-100, 0.05% SDS).
The terminated assay plates were analyzed on LabChip® 3000 microfluidic electrophoresis instrument (Perkin Elmer/Caliper Life Sciences). The fluorescence intensity of the electrophoretically separated de-acetylated product and substrate peptide was measured. Activity in each sample was determined as the product to sum ratio (PSR): P/(S+P), where P is the peak height of the product peptide and S is the peak height of the substrate peptide. Percent inhibition (Pinh) is determined using the following equation:
Pinh=(PSR0%−PSRinh)/(PSR0%−PSR100%)*100, where PSRinh is the product sum ratio in the presence of inhibitor, PSR0% is the average product sum ration in the absence of inhibitor and PSR100% is the average product sum ratio in 100%-inhibition control samples. The IC50 values of inhibitors were determined by fitting the %-inhibition curves with 4 parameter dose-response model using XLfit 4 software.

Row | IC50 [nM] | Compound
1 | ≤ 100 | C[C@H]1COc2cc(C(=O)NO)ccc2CN1C(=O)Oc1ccc(F)cc1 [4-fluorophenyl(S)-8-(hydroxycarbamoyl)-3-methyl-2,3-dihydrobenzo[f][1,4]oxazepine-4(5H)-carboxylate]
2 | ≤ 100 | C[C@H]1COc2cc(C(=O)NO)ccc2CN1CCC1CCCO1 (stereo partly drawn) [(3S)-N-hydroxy-3-methyl-4-(2-(tetrahydrofuran-2-yl)ethyl)-2,3,4,5-tetrahydrobenzo[f][1,4]oxazepine-8-carboxamide]
3 | ≤ 100 | CC1CCCCN1C(=O)N1Cc2ccc(C(=O)NO)cc2OC[C@@H]1C (stereo partly drawn) [(3S)-N-hydroxy-3-methyl-4-(2-methylpiperidine-1-carbonyl)-2,3,4,5-tetrahydrobenzo[f][1,4]oxazepine-8-carboxamide]
4 | ≤ 100 | CC1COCCN1C(=O)N1Cc2ccc(C(=O)NO)cc2OC[C@@H]1C (stereo partly drawn) [(3S)-N-hydroxy-3-methyl-4-(3-methylmorpholine-4-carbonyl)-2,3,4,5-tetrahydrobenzo[f][1,4]oxazepine-8-carboxamide]
5 | ≤ 100 | C[C@H]1COc2cc(C(=O)NO)ccc2CN1CC1CCCO1 (stereo partly drawn) [(3S)-N-hydroxy-3-methyl-4-((tetrahydrofuran-2-yl)methyl)-2,3,4,5-tetrahydrobenzo[f][1,4]oxazepine-8-carboxamide]
6 | ≤ 100 | COC1CCN(C(=O)N2Cc3ccc(C(=O)NO)cc3OC[C@@H]2C)C1 (stereo partly drawn) [(3S)-N-hydroxy-4-(3-methoxypyrrolidine-1-carbonyl)-3-methyl-2,3,4,5-tetrahydrobenzo[f][1,4]oxazepine-8-carboxamide]
7 | ≤ 100 | COC[C@@H]1COc2cc(C(=O)NO)ccc2CN1C [(R)-N-hydroxy-3-(methoxymethyl)-4-methyl-2,3,4,5-tetrahydrobenzo[f][1,4]oxazepine-8-carboxamide]
8 | > 500 | C[C@@H]1CN(C)Cc2ccc(C(=O)NO)cc2O1 [(R)—N-hydroxy-2,4-dimethyl-2,3,4,5-tetrahydrobenzo[f][1,4]oxazepine-8-carboxamide]
9 | ≤ 100 | C[C@@H]1COc2cc(C(=O)NO)ccc2CN1C [(R)—N-hydroxy-3,4-dimethyl-2,3,4,5-tetrahydrobenzo[f][1,4]oxazepine-8-carboxamide]
10 | 100 to 500 | C[C@@H]1COc2cc(C(=O)NO)ccc2CN1 [(R)—N-hydroxy-3-methyl-2,3,4,5-tetrahydrobenzo[f][1,4]oxazepine-8-carboxamide]
11 | ≤ 100 | O=C(NO)c1ccc2c(c1)OC[C@H](Cc1ccccc1)N(C(=O)N1CCOCC1)C2 [(S)-3-benzyl-N-hydroxy-4-(morpholine-4-carbonyl)-2,3,4,5-tetrahydrobenzo[f][1,4]oxazepine-8-carboxamide]
12 | ≤ 100 | CC[C@H]1COc2cc(C(=O)NO)ccc2CN1C [(S)-3-ethyl-N-hydroxy-4-methyl-2,3,4,5-tetrahydrobenzo[f][1,4]oxazepine-8-carboxamide]
13 | ≤ 100 | C[C@H]1COc2cc(C(=O)NO)ccc2CN1c1ccccc1Cl [(S)-4-(2-chlorophenyl)-N-hydroxy-3-methyl-2,3,4,5-tetrahydrobenzo[f][1,4]oxazepine-8-carboxamide]
14 | ≤ 100 | C[C@H]1COc2cc(C(=O)NO)ccc2CN1C(=O)N1CCOc2ccccc21 [(S)-4-(3,4-dihydro-2H-benzo[b][1,4]oxazine-4-carbonyl)-N-hydroxy-3-methyl-2,3,4,5-tetrahydrobenzo[f][1,4]oxazepine-8-carboxamide]
15 | ≤ 100 | C[C@H]1COc2cc(C(=O)NO)ccc2CN1c1ccc(Cl)cc1 [(S)-4-(4-chlorophenyl)-N-hydroxy-3-methyl-2,3,4,5-tetrahydrobenzo[f][1,4]oxazepine-8-carboxamide]

Continued, molecule first:

Row | Compound | IC50 [nM]
16 | CC(c1ccc(F)cc1)N1Cc2ccc(C(=O)NO)cc2OC[C@@H]1C (stereo partly drawn) [(3S)-4-(1-(4-fluorophenyl)ethyl)-N-hydroxy-3-methyl-2,3,4,5-tetrahydrobenzo[f][1,4]oxazepine-8-carboxamide] | 100 to 500
17 | COC[C@H]1CN(C(=O)Nc2ccc(OC)cc2)Cc2ccc(C(=O)NO)cc2O1 [(R)-N8-hydroxy-2-(methoxymethyl)-N4-(4-methoxyphenyl)-2,3-dihydrobenzo[f][1,4]oxazepine-4,8(5H)-dicarboxamide] | 100 to 500
18 | COc1ccc(NC(=O)N2Cc3ccc(C(=O)NO)cc3O[C@H](C(C)C)C2)cc1 [(R)-N8-hydroxy-2-isopropyl-N4-(4-methoxyphenyl)-2,3-dihydrobenzo[f][1,4]oxazepine-4,8(5H)-dicarboxamide] | > 500
19 | COc1ccc(NC(=O)N2Cc3ccc(C(=O)NO)cc3O[C@H](c3ccccc3)C2)cc1 [(R)-N8-hydroxy-N4-(4-methoxyphenyl)-2-phenyl-2,3-dihydrobenzo[f][1,4]oxazepine-4,8(5H)-dicarboxamide] | 100 to 500
20 | COC[C@@H]1COc2cc(C(=O)NO)ccc2CN1c1ccccc1C [(R)-N-hydroxy-3-(methoxymethyl)-4-(o-tolyl)-2,3,4,5-tetrahydrobenzo[f][1,4]oxazepine-8-carboxamide] | ≤ 100
21 | COC[C@@H]1COc2cc(C(=O)NO)ccc2CN1c1ccccc1 [(R)-N-hydroxy-3-(methoxymethyl)-4-phenyl-2,3,4,5-tetrahydrobenzo[f][1,4]oxazepine-8-carboxamide] | 100 to 500
22 | COC[C@@H]1COc2cc(C(=O)NO)ccc2CN1Cc1ccc(OC)cc1 [(R)-N-hydroxy-4-(4-methoxybenzyl)-3-(methoxymethyl)-2,3,4,5-tetrahydrobenzo[f][1,4]oxazepine-8-carboxamide] | ≤ 100
23 | COc1ccc(CN2CCOc3cc(C(=O)NO)ccc3[C@H]2C)cc1 [(R)-N-hydroxy-4-(4-methoxybenzyl)-5-methyl-2,3,4,5-tetrahydrobenzo[f][1,4]oxazepine-8-carboxamide] | > 500
24 | C[C@@H]1CNCc2ccc(C(=O)NO)cc2O1 [(R)—N-hydroxy-2-methyl-2,3,4,5-tetrahydrobenzo[f][1,4]oxazepine-8-carboxamide] | > 500
25 | CC[C@H]1COc2cc(C(=O)NO)ccc2CN1Cc1ccc(OC)cc1 [(S)-3-ethyl-N-hydroxy-4-(4-methoxybenzyl)-2,3,4,5-tetrahydrobenzo[f][1,4]oxazepine-8-carboxamide] | ≤ 100
26 | CC[C@H]1COc2cc(C(=O)NO)ccc2CN1c1ccccc1C [(S)-3-ethyl-N-hydroxy-4-(o-tolyl)-2,3,4,5-tetrahydrobenzo[f][1,4]oxazepine-8-carboxamide] | ≤ 100
27 | CC[C@H]1COc2cc(C(=O)NO)ccc2CN1c1ccccc1 [(S)-3-ethyl-N-hydroxy-4-phenyl-2,3,4,5-tetrahydrobenzo[f][1,4]oxazepine-8-carboxamide] | ≤ 100
28 | C[C@H]1COc2cc(C(=O)NO)ccc2CN1c1ccccc1F [(S)-4-(2-fluorophenyl)-N-hydroxy-3-methyl-2,3,4,5-tetrahydrobenzo[f][1,4]oxazepine-8-carboxamide] | ≤ 100
29 | C[C@H]1COc2cc(C(=O)NO)ccc2CN1c1cccc(F)c1 [(S)-4-(3-fluorophenyl)-N-hydroxy-3-methyl-2,3,4,5-tetrahydrobenzo[f][1,4]oxazepine-8-carboxamide] | ≤ 100
